{"source": "patent US20040014215A1", "about": "“Synchronised arabidopsis cell suspensions and uses thereof” (priority 2000, published 2004)", "format_in_all_cases": "cell-based, Arabidopsis thaliana", "key": {"[1]": {"tested_on": "Arabidopsis cell suspension culture MM1", "test": "Scaled-up aphidicolin (4.16 μg/ml, 24 hrs) synchronisation of MM1: LI and MI", "experimental": "(§1) was analysed following the expression level of known cell cycle regulated genes. Synchronisation was performed as described in Example 2A, with the exception that two 7-day old cultures of the weekly sub-cultured cell suspension (210 ml each) were combined. 40 ml of combined culture was transferred into 200 ml of fresh MSS-medium in each of 10 separate flasks. After incubation for 24 hrs under conditions as described in Example 1, in the presence of 4.16 μg/ml aphidicolin, cells from 5 pooled flasks were washed through a nylon net (mesh size 47 μm) and washed with 2 litre MSS medium and shaken vigorously to remove the aphidicolin. Cells were transferred into a 50 ml plastic tube, washed again with MSS medium and centrifuged at 2500 rpm for 1 min (1075 rcf). Cells were resuspended and combined with the cells from the other 5 flasks similarly washed in a total volume of 300 ml fresh MSS-medium. 30 ml of this cell suspension was then added to 200 ml fresh MSS-medium in each of 10 separate flasks.\nFor every time point a 30 ml sample was split into:\n2) 5 ml for LI and Ml determination as described in Example 2A.\nA MI peak of 9.8% was observed, about 12 hrs after release from the aphidicolin block. Labelling index was also determined and reached a peak of 52%, 3 h after release."}, "CDK-b2": {"tested_on": "CDK-b2", "test": "Northern expression analysis after aphidicolin synchronisation of MM1 (maximum signal = 100%)", "experimental": "as §1\n(§2) 1) 25 ml for Northern blot (transferred into 50 ml plastic tube, centrifuged at 2500 rpm for 1 min, the supernatant discarded, and the cell pellet shock-frozen in liquid nitrogen before storing in −80° C. freezer)\n(§3) Samples were collected at the time point indicated (time of removal of aphidicolin equals time point 0 hrs) and were analysed for expression of the following genes by Northern blot:\n(§4) For each probe the maximum hybridisation signal obtained was defined as 100%."}, "CycB1": {"tested_on": "CycB1", "test": "Northern expression analysis after aphidicolin synchronisation of MM1 (maximum signal = 100%)", "experimental": "as §1, §2, §3, §4"}, "[2]": {"tested_on": "Transgenic MM1-cycD2 cell lines", "test": "Aphidicolin block/release of transgenic MM1-cycD2 cell lines", "conditions": "compared with non transgenic MM1 cell lines", "experimental": "To re-establish liquid cultures of putative transgenic MM1-calli, callus tissue was transferred to a 55 mm petridish, carefully squeezed with a pipet tip and resuspended in 10 ml fresh MSS-medium (0.5 mg/l NM, 0.05 mg/l kinetin, 100 μg/ml kanamycin). The callus derived cell suspensions were incubated at 120 rpm, 23° C. under continuous light conditions in 100 ml Erlenmeyer flasks. After 10 days cultivation, 10 ml MSS-medium (0.5 mg/l NM, 0.05 mg/l kinetin) was added to the suspension cultures and left for further 7 days under conditions as above. 5 ml putative transgenic cell suspension was subcultured into 50 ml fresh MSS-medium (0.5 mg/l NM, 0.05 mg/l kinetin, 100 μg/ml kanamycin). This subculturing procedure was repeated twice at 7 days intervals in the same medium. Subsequent subculturing was carried out weekly into fresh MSS-medium (0.5 mg/l NAA, 0.05 mg/l kinetin without kanamycin selection), adjusting the transferred volume of cells to produce an inoculum of approximately the same as WT-MM1 culture. In the example of putative transgenic MM1-cycD2 cell suspensions, these were maintained by subculturing weekly 3.5 ml into 100 ml fresh MSS-medium (0.5 mg/l NAA, 0.05 mg/l kinetin) in 300 ml Erlenmeyer flasks. […] Putative transgenic calli or the suspension cultures thereof were analyzed using PCR and appropriate primers allowing to detect the cycD2 coding region. […]"}, "[3]": {"conditions": "0 hrs after aphidicolin removal"}, "[4]": {"conditions": "2 hrs after aphidicolin removal"}, "[5]": {"conditions": "4 hrs after aphidicolin removal"}, "[6]": {"conditions": "6 hrs after aphidicolin removal"}, "[7]": {"conditions": "8 hrs after aphidicolin removal"}, "[8]": {"conditions": "10 hrs after aphidicolin removal"}, "[9]": {"conditions": "12 hrs after aphidicolin removal"}, "[10]": {"conditions": "14 hrs after aphidicolin removal"}, "[11]": {"conditions": "16 hrs after aphidicolin removal"}, "[12]": {"conditions": "18 hrs after aphidicolin removal"}, "[13]": {"conditions": "20 hrs after aphidicolin removal"}, "[14]": {"conditions": "22 hrs after aphidicolin removal"}, "[15]": {"conditions": "24 hrs after aphidicolin removal"}, "[16]": {"conditions": "26 hrs after aphidicolin removal"}, "[17]": {"conditions": "28 hrs after aphidicolin removal"}, "[18]": {"conditions": "30 hrs after aphidicolin removal"}}}
{"smiles": "C[C@@]1(CO)[C@H](O)CC[C@@]2(C)[C@H]1CC[C@H]1C[C@@H]3C[C@@]12CC[C@]3(O)CO", "note": "[aphidicolin]", "values": [{"measurement": "Labelling index peak", "setting": "[1]; 3 h after release", "result": 52, "unit": "%"}, {"measurement": "MI peak", "setting": "[1]; about 12 hrs after release from the aphidicolin block", "result": 9.8, "unit": "%"}, {"measurement": "CDK-b2 %", "setting": "CDK-b2; [3]", "result": 7.78, "unit": "%"}, {"measurement": "CDK-b2 Band intensity", "setting": "CDK-b2; [3]", "result": 1084}, {"measurement": "CDK-b2 %", "setting": "CDK-b2; [4]", "result": 12.90, "unit": "%"}, {"measurement": "CDK-b2 Band intensity", "setting": "CDK-b2; [4]", "result": 1796}, {"measurement": "CDK-b2 %", "setting": "CDK-b2; [5]", "result": 8.22, "unit": "%"}, {"measurement": "CDK-b2 Band intensity", "setting": "CDK-b2; [5]", "result": 1144}, {"measurement": "CDK-b2 %", "setting": "CDK-b2; [6]", "result": 12.09, "unit": "%"}, {"measurement": "CDK-b2 Band intensity", "setting": "CDK-b2; [6]", "result": 1683}, {"measurement": "CDK-b2 %", "setting": "CDK-b2; [7]", "result": 28.47, "unit": "%"}, {"measurement": "CDK-b2 Band intensity", "setting": "CDK-b2; [7]", "result": 3963}, {"measurement": "CDK-b2 %", "setting": "CDK-b2; [8]", "result": 49.90, "unit": "%"}, {"measurement": "CDK-b2 Band intensity", "setting": "CDK-b2; [8]", "result": 6947}, {"measurement": "CDK-b2 %", "setting": "CDK-b2; [9]", "result": 87.45, "unit": "%"}, {"measurement": "CDK-b2 Band intensity", "setting": "CDK-b2; [9]", "result": 12174}, {"measurement": "CDK-b2 %", "setting": "CDK-b2; [10]", "result": 100, "unit": "%"}, {"measurement": "CDK-b2 Band intensity", "setting": "CDK-b2; [10]", "result": 13921}, {"measurement": "CDK-b2 %", "setting": "CDK-b2; [11]", "result": 55.84, "unit": "%"}, {"measurement": "CDK-b2 Band intensity", "setting": "CDK-b2; [11]", "result": 7774}, {"measurement": "CDK-b2 %", "setting": "CDK-b2; [12]", "result": 67.57, "unit": "%"}, {"measurement": "CDK-b2 Band intensity", "setting": "CDK-b2; [12]", "result": 9407}, {"measurement": "CDK-b2 %", "setting": "CDK-b2; [13]", "result": 47.80, "unit": "%"}, {"measurement": "CDK-b2 Band intensity", "setting": "CDK-b2; [13]", "result": 6654}, {"measurement": "CDK-b2 %", "setting": "CDK-b2; [14]", "result": 22.78, "unit": "%"}, {"measurement": "CDK-b2 Band intensity", "setting": "CDK-b2; [14]", "result": 3172}, {"measurement": "CDK-b2 %", "setting": "CDK-b2; [15]", "result": 13.73, "unit": "%"}, {"measurement": "CDK-b2 Band intensity", "setting": "CDK-b2; [15]", "result": 1912}, {"measurement": "CDK-b2 %", "setting": "CDK-b2; [16]", "result": 22.86, "unit": "%"}, {"measurement": "CDK-b2 Band intensity", "setting": "CDK-b2; [16]", "result": 3183}, {"measurement": "CDK-b2 %", "setting": "CDK-b2; [17]", "result": 18.55, "unit": "%"}, {"measurement": "CDK-b2 Band intensity", "setting": "CDK-b2; [17]", "result": 2583}, {"measurement": "CDK-b2 %", "setting": "CDK-b2; [18]", "result": 22.19, "unit": "%"}, {"measurement": "CDK-b2 Band intensity", "setting": "CDK-b2; [18]", "result": 3089}, {"measurement": "cycB1 %", "setting": "CycB1; [3]", "result": 33.18, "unit": "%"}, {"measurement": "cycB1 Band intensity", "setting": "CycB1; [3]", "result": 636}, {"measurement": "cycB1 %", "setting": "CycB1; [4]", "result": 62.69, "unit": "%"}, {"measurement": "cycB1 Band intensity", "setting": "CycB1; [4]", "result": 1201}, {"measurement": "cycB1 %", "setting": "CycB1; [5]", "result": 47.09, "unit": "%"}, {"measurement": "cycB1 Band intensity", "setting": "CycB1; [5]", "result": 902}, {"measurement": "cycB1 %", "setting": "CycB1; [6]", "result": 59.67, "unit": "%"}, {"measurement": "cycB1 Band intensity", "setting": "CycB1; [6]", "result": 1143}, {"measurement": "cycB1 %", "setting": "CycB1; [7]", "result": 69.42, "unit": "%"}, {"measurement": "cycB1 Band intensity", "setting": "CycB1; [7]", "result": 1330}, {"measurement": "cycB1 %", "setting": "CycB1; [8]", "result": 83.86, "unit": "%"}, {"measurement": "cycB1 Band intensity", "setting": "CycB1; [8]", "result": 1607}, {"measurement": "cycB1 %", "setting": "CycB1; [9]", "result": 89.57, "unit": "%"}, {"measurement": "cycB1 Band intensity", "setting": "CycB1; [9]", "result": 1717}, {"measurement": "cycB1 %", "setting": "CycB1; [10]", "result": 100.0, "unit": "%"}, {"measurement": "cycB1 Band intensity", "setting": "CycB1; [10]", "result": 1917}, {"measurement": "cycB1 %", "setting": "CycB1; [11]", "result": 76.51, "unit": "%"}, {"measurement": "cycB1 Band intensity", "setting": "CycB1; [11]", "result": 1466}, {"measurement": "cycB1 %", "setting": "CycB1; [12]", "result": 90.81, "unit": "%"}, {"measurement": "cycB1 Band intensity", "setting": "CycB1; [12]", "result": 1740}, {"measurement": "cycB1 %", "setting": "CycB1; [13]", "result": 77.04, "unit": "%"}, {"measurement": "cycB1 Band intensity", "setting": "CycB1; [13]", "result": 1476}, {"measurement": "cycB1 %", "setting": "CycB1; [14]", "result": 45.09, "unit": "%"}, {"measurement": "cycB1 Band intensity", "setting": "CycB1; [14]", "result": 864}, {"measurement": "cycB1 %", "setting": "CycB1; [15]", "result": 48.70, "unit": "%"}, {"measurement": "cycB1 Band intensity", "setting": "CycB1; [15]", "result": 933}, {"measurement": "cycB1 %", "setting": "CycB1; [16]", "result": 49.18, "unit": "%"}, {"measurement": "cycB1 Band intensity", "setting": "CycB1; [16]", "result": 942}, {"measurement": "cycB1 %", "setting": "CycB1; [17]", "result": 52.79, "unit": "%"}, {"measurement": "cycB1 Band intensity", "setting": "CycB1; [17]", "result": 1012}, {"measurement": "synchronisation by aphidicolin block/release", "setting": "[2]", "result": "could be synchronized in a similar way as non transgenic MM1 cell lines"}]}
